Reference: article PMC12717099, “Peptidoglycan recruitment by a penicillin binding protein” (Nature Communications, 2025)

Tests used:
[1] = system: PBP5 (PBP5_37-678); experiment: NMR chemical shift perturbation titration (2D [1H,15N] TROSY, 2D [1H,13C] ILV methyl HMQC) of stem peptides / PG into PBP5; format: binding, Enterococcus faecium; conditions: peptides up to 1:80 PBP5:SP (SP3 1:1000); PG 1:0.25-1:5
Experimental: Data was processed using Topspin 4.1.4 (Bruker) and analyzed using NMRFAM-SPARKY 1.3 and Poky (build number 20240829)[20],[21]. The sequence-specific backbone assignment of PBP5 is publicly available at BMRBID 51690.
SPs (SP1 to SP7) were titrated into 0.5 mM (^2H,^15N)-labeled and 0.1 mM (^2H,^15N)/^13C ILV labeled PBP5 at molar ratios of 0:1, 5:1, 10:1, 20:1, 40:1, 60:1, and 80:1 (stem peptide/SP:PBP5; molar ratios). 2D [^1H,^15N] TROSY or 2D [^1H,^13C] HMQC spectra were recorded for each titration point. SPs were solubilized in NMR buffer. Chemical shift perturbations (Δδ) between PBP5 and SP bound PBP5 spectra were calculated using Eq. 1,1 Δδppm=ΔδH^2+ΔδX/Y^2 where, X is ^15N or ^13C and Y is the constant i.e., 10 for ^15N and 4 for ^13C.
Residues with significant CSPs were identified by calculating the standard deviation of all CSPs (σ), then excluding any CSPs larger than average+2σ, recalculating σ as a new corrected σ0, and then repetitively removing CSPs above 2σ0 until no additional CSPs can be removed. CSPs above ≥2σ2 was the statistical threshold for ^1H/^15N backbone CSP analysis and ≥2xσ1 for ^1H/^13C methyl ILV data for the interaction of SP1 with PBP5. The same threshold values were used for all other peptides to allow for direct comparison with the SP1/PBP5 interaction. The identical significance analysis was also performed for PenG/ceftaroline saturated PBP5 (1:8 molar ratio of PBP5 to β-lactam antibiotics was used to ensure saturation of an extended time period needed for the SP titrations) SP interaction studies; CSPs above ≥2σ3 was the statistical threshold for ^1H/^15N backbone CSP analysis and ≥2xσ2 for ^1H/^13C methyl ILV data to identify all residues with a statistically significant change in its chemical shift upon SP interaction.
Residue specific KD values were calculated by using Eq. 2[23],2 CSPobs=CSPmax/2PP+S+KD−P+S+KD^2−4[S][P] where P and S are the concentration of PBP5 and SP1, respectively. CSPobs is the experimentally observed chemical shift value and CSPmax is the largest experimentally observed chemical shift value of the residue. […] The lack of saturation was due to the limited amount of available SP peptide due to their difficult synthesis. Residues used for KD calculation were common residues with statistically significant CSPs in the interaction studies of SP1 and SP2 with PBP5 at a 1:80 ratio.

[2] = system: PBP5; experiment: 1D 1H STD NMR of stem peptides with PBP5; format: binding, Enterococcus faecium; conditions: for STD % to SP1: normalised to highest SP1:PBP5 value; for STD amplification factor: protein:peptide 1:100, 2 s saturation, 308 K
From the text: Total saturation time for STD measurements was 2 s.
Overlapped peaks were completely excluded from the analysis.

“D-Lac-L-Ala-D-iGln-Gly-D-Ala-D-Ala [SP4, SP with L-Lys(D-iAsn) replaced by Gly]” was tested, and the “interaction with PBP5 by CSPs, in words” value [1] was “interacts with PBP5 very poorly”, the “STD amplification factor as fraction of highest SP1:PBP5 value” (from here on “STD amplification factor as fraction”) ([2]; 1H DA4β, DLacβ) was 0.2081 and the “STD % to SP1” value ([2]; 1H DA4β, DLacβ) was 20.809%. For the same substance, the STD amplification factor ([2]; 1H DA4β, DLacβ) was 5.599, the “STD amplification factor as fraction” value ([2]; 1H DA5α) was 0.5864 and the “STD % to SP1” value ([2]; 1H DA5α) was 58.6405%. For the same substance, the STD amplification factor ([2]; 1H DA5α) was 15.7792, the “STD amplification factor as fraction” value ([2]; 1H DA5β) was 0.2717 and the “STD % to SP1” value ([2]; 1H DA5β) was 27.1666%. For the same substance, the STD amplification factor ([2]; 1H DA5β) was 7.3101, the “STD amplification factor as fraction” value ([2]; 1H DQ2α,Dlacα,DA4α,LA1α) was 0.3132 and the “STD % to SP1” value ([2]; 1H DQ2α,Dlacα,DA4α,LA1α) was 31.3217%. For the same substance, the STD amplification factor ([2]; 1H DQ2α,Dlacα,DA4α,LA1α) was 8.428, the “STD amplification factor as fraction” value ([2]; 1H DQ2β (first listed)) was 0.6761 and the “STD % to SP1” value ([2]; 1H DQ2β (first listed)) was 67.6099%. The STD amplification factor ([2]; 1H DQ2β (first listed)) was 18.1927, the “STD amplification factor as fraction” value ([2]; 1H DQ2β (second listed)) was 0.8081 and the “STD % to SP1” value ([2]; 1H DQ2β (second listed)) was 80.8137%. The STD amplification factor ([2]; 1H DQ2β (second listed)) was 21.7457, the “STD amplification factor as fraction” value ([2]; 1H DQ2γ) was 0.2977 and the “STD % to SP1” value ([2]; 1H DQ2γ) was 29.7735%. For the same substance, the STD amplification factor ([2]; 1H DQ2γ) was 8.012, the “STD amplification factor as fraction” value ([2]; 1H G3α) was 0.19 and the “STD % to SP1” value ([2]; 1H G3α) was 19.0039%. The STD amplification factor ([2]; 1H G3α) was 5.114, the “STD amplification factor as fraction” value ([2]; 1H LA1β) was 0.2515 and the “STD % to SP1” value ([2]; 1H LA1β) was 25.1468%. It also gave an STD amplification factor ([2]; 1H LA1β) of 6.767.
For D-Ala-D-Ala [SP3], the “interaction with PBP5 by CSPs, in words” value [1] was “no CSPs were observed”.
With “D-Lac-L-Ala-D-iGln-L-Lys-D-Ala-D-Ala [SP5]” the “interaction with PBP5 by CSPs, in words” value [1] was “weaker interaction”, the “STD amplification factor as fraction” value ([2]; 1H D5α) was 0.4969 and the “STD % to SP1” value ([2]; 1H D5α) was 49.685%. The STD amplification factor ([2]; 1H D5α) was 13.3694, the “STD amplification factor as fraction” value ([2]; 1H DA4α,LA1α) was 0.2481 and the “STD % to SP1” value ([2]; 1H DA4α,LA1α) was 24.8062%. The STD amplification factor ([2]; 1H DA4α,LA1α) was 6.675, the “STD amplification factor as fraction” value ([2]; 1H DA4β, DLacβ) was 0.2031 and the “STD % to SP1” value ([2]; 1H DA4β, DLacβ) was 20.3132%. The STD amplification factor ([2]; 1H DA4β, DLacβ) was 5.466, the “STD amplification factor as fraction” value ([2]; 1H DA5β) was 0.283 and the “STD % to SP1” value ([2]; 1H DA5β) was 28.3024%. The STD amplification factor ([2]; 1H DA5β) was 7.616, the “STD amplification factor as fraction” value ([2]; 1H DQ2α,Dlacα) was 0.2004 and the “STD % to SP1” value ([2]; 1H DQ2α,Dlacα) was 20.0424%. The STD amplification factor ([2]; 1H DQ2α,Dlacα) was 5.393, the “STD amplification factor as fraction” value ([2]; 1H DQ2β (first listed)) was 0.5843 and the “STD % to SP1” value ([2]; 1H DQ2β (first listed)) was 58.4308%. The STD amplification factor ([2]; 1H DQ2β (first listed)) was 15.7228, the “STD amplification factor as fraction” value ([2]; 1H DQ2β (second listed)) was 0.7133 and the “STD % to SP1” value ([2]; 1H DQ2β (second listed)) was 71.3266%. For the same substance, the STD amplification factor ([2]; 1H DQ2β (second listed)) was 19.1928, the “STD amplification factor as fraction” value ([2]; 1H DQ2γ) was 0.2744 and the “STD % to SP1” value ([2]; 1H DQ2γ) was 27.4437%. The STD amplification factor ([2]; 1H DQ2γ) was 7.385, the “STD amplification factor as fraction” value ([2]; 1H K3α) was 0.381 and the “STD % to SP1” value ([2]; 1H K3α) was 38.104%. The STD amplification factor ([2]; 1H K3α) was 10.2532, the “STD amplification factor as fraction” value ([2]; 1H K3β) was 0.5122 and the “STD % to SP1” value ([2]; 1H K3β) was 51.2163%. The STD amplification factor ([2]; 1H K3β) was 13.7815, the “STD amplification factor as fraction” value ([2]; 1H K3δ) was 0.5418 and the “STD % to SP1” value ([2]; 1H K3δ) was 54.1786%. The STD amplification factor ([2]; 1H K3δ) was 14.5786, the “STD amplification factor as fraction” value ([2]; 1H K3ε) was 0.2671 and the “STD % to SP1” value ([2]; 1H K3ε) was 26.7058%. For the same substance, the STD amplification factor ([2]; 1H K3ε) was 7.186, the “STD amplification factor as fraction” value ([2]; 1H LA1β) was 0.2119 and the “STD % to SP1” value ([2]; 1H LA1β) was 21.1895%. It also gave an STD amplification factor ([2]; 1H LA1β) of 5.702.
In the case of “D-Lac-L-Ala-D-nGln-L-Lys(D-iAsn)-D-Ala-D-Ala [SP6]”, the “interaction with PBP5 by CSPs, in words” value [1] is reported as “more akin to that of SP1 than SP4”, the “STD amplification factor as fraction” value ([2]; 1H DA4α,LA1α,DQ2α) is reported as 0.3043 and the “STD % to SP1” value ([2]; 1H DA4α,LA1α,DQ2α) is reported as 30.434%. For the same substance, the STD amplification factor ([2]; 1H DA4α,LA1α,DQ2α) was 8.1893, the “STD amplification factor as fraction” value ([2]; 1H DA4β, DLacβ) was 0.3219 and the “STD % to SP1” value ([2]; 1H DA4β, DLacβ) was 32.1881%. For the same substance, the STD amplification factor ([2]; 1H DA4β, DLacβ) was 8.661, the “STD amplification factor as fraction” value ([2]; 1H DA5α) was 0.8446 and the “STD % to SP1” value ([2]; 1H DA5α) was 84.4584%. The STD amplification factor ([2]; 1H DA5α) was 22.7264, the “STD amplification factor as fraction” value ([2]; 1H DA5β) was 0.4039 and the “STD % to SP1” value ([2]; 1H DA5β) was 40.3917%. For the same substance, the STD amplification factor ([2]; 1H DA5β) was 10.8688, the “STD amplification factor as fraction” value ([2]; 1H DQ2β (first listed)) was 0.9448 and the “STD % to SP1” value ([2]; 1H DQ2β (first listed)) was 94.4801%. For the same substance, the STD amplification factor ([2]; 1H DQ2β (first listed)) was 25.4231, the “STD amplification factor as fraction” value ([2]; 1H DQ2β (second listed)) was 1.053 and the “STD % to SP1” value ([2]; 1H DQ2β (second listed)) was 105.321%. For the same substance, the STD amplification factor ([2]; 1H DQ2β (second listed)) was 28.3401, the “STD amplification factor as fraction” value ([2]; 1H DQ2γ) was 0.4867 and the “STD % to SP1” value ([2]; 1H DQ2γ) was 48.6725%. The STD amplification factor ([2]; 1H DQ2γ) was 13.097, the “STD amplification factor as fraction” value ([2]; 1H K3β) was 0.991 and the “STD % to SP1” value ([2]; 1H K3β) was 99.098%. For the same substance, the STD amplification factor ([2]; 1H K3β) was 26.6657, the “STD amplification factor as fraction” value ([2]; 1H K3δ) was 0.802 and the “STD % to SP1” value ([2]; 1H K3δ) was 80.2012%. The STD amplification factor ([2]; 1H K3δ) was 21.5809, the “STD amplification factor as fraction” value ([2]; 1H LA1β) was 0.4375 and the “STD % to SP1” value ([2]; 1H LA1β) was 43.7522%. The STD amplification factor ([2]; 1H LA1β) was 11.773, the “STD amplification factor as fraction” value ([2]; 1H iNα ,Dlacα,K3α) was 0.4025 and the “STD % to SP1” value ([2]; 1H iNα ,Dlacα,K3α) was 40.2497%. For the same substance, the STD amplification factor ([2]; 1H iNα ,Dlacα,K3α) was 10.8306, the “STD amplification factor as fraction” value ([2]; 1H iNβ) was 0.4322 and the “STD % to SP1” value ([2]; 1H iNβ) was 43.2239%. The STD amplification factor ([2]; 1H iNβ) was 11.6309.
